Drawing on patent US5438052A, “Cephalosporin derivatives” (Hoffmann-La Roche Inc., priority 1991, dated 1995), this text covers MIC and ED50 for one compound.

Broadly, the MIC is the smallest concentration in the dilution series that meets the test's criterion for growth inhibition. For orientation: ED50 means the dose that gives a 50% effect, or the effect in half of the subjects. Low values mean greater potency, high ones weaker potency.

One test relates to C. freundii 902. In words: Minimum inhibitory concentration in vitro, agar dilution method. The test is classed as cell-based. As to conditions: Citrobacter freundii, 902. The text has this: (§1) 1. Minimum Inhibitory Concentration in vitro
(§2) The activities ascertained, minimum inhibitory concentration (MIC) in μg/ml, are compiled in Table 1 hereinafter: […]
(Agar dilution tests growth on a series of plates holding different concentrations.)

A further test has as its system E. aerogenes CF153. The test is described as above. The test is classed as cell-based. As to conditions: Klebsiella aerogenes, CF153.
Text: as §1, §2

For the next test, the system named is E. cloacae 908R. The test is described as above. The test is classed as cell-based. The conditions noted are these: Enterobacter cloacae, 908R.
Text: as §1, §2

A further test deals with E. cloacae 908SSi. The description is as above. The test is classed as cell-based. The conditions noted are these: Enterobacter cloacae, 908SSI.
Text: as §1, §2

The next test has as its system E. cloacae P99. Described as above. The format is cell-based. The conditions noted are these: Enterobacter cloacae.
Text: as §1, §2

Test [1] relates to E. coli 25922. The description is as above. The test is classed as cell-based. As to conditions: Escherichia coli, 25922.
Text: as §1, §2

The next test relates to K. oxytoca 1082. Described as above. The format is cell-based. As to conditions: Klebsiella oxytoca, 1082.
Text: as §1, §2

Another test concerns K. pneumoniae 418. Described as above. The test is classed as cell-based. The conditions noted are these: Klebsiella pneumoniae, 418.
Text: as §1, §2

Another test relates to P. aeruginosa 27853. Described as above. The test is classed as cell-based. As to conditions: Pseudomonas aeruginosa, 27853.
Text: as §1, §2

A further test has as its system P. aeruginosa 799/61. The description is as above. The test is classed as cell-based. The conditions noted are these: Pseudomonas aeruginosa, 799/61.
Text: as §1, §2

In another test the test system is P. aeruginosa 799/WT. Described as above. The test is classed as cell-based. The conditions noted are these: Pseudomonas aeruginosa, 799/WT.
Text: as §1, §2

The next test deals with P. aeruginosa BA. Described as above. As to conditions: Pseudomonas aeruginosa. The format is cell-based.
Text: as §1, §2

Another test has as its system P. aeruginosa MK1184. The description is as above. The format is cell-based. As to conditions: Pseudomonas aeruginosa, MK1184.
Text: as §1, §2

The test system of a further test is P. mirabilis 2117. Described as above. The test is classed as cell-based. As to conditions: Proteus mirabilis, 2117.
Text: as §1, §2

A further test has as its system P. vulgaris 1028. The description is as above. The format is cell-based. The conditions noted are these: Proteus vulgaris, 1028.
Text: as §1, §2

The test system of the next test is S. aureus 6538. The description is as above. As to conditions: Staphylococcus aureus, 6538. The format is cell-based.
Text: as §1, §2

The next test has as its system S. marcescens 69438. The description is as above. The format is cell-based. The conditions noted are these: Serratia marcescens, 69438.
Text: as §1, §2

In another test the test system is S. pyogenes 15. The description is as above. The test is classed as cell-based. As to conditions: Streptococcus pyogenes, 15.
Text: as §1, §2

In test [2] the test system is E. coli 25922. Briefly: Experimental systemic septicaemia in the mouse. The test is classed as in vivo. The conditions noted are these: Escherichia coli, 25922, sc, 96 h. In short, it runs like this:
(§3)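 Albino mice (16-20 g) infected i.p. with overnight culture at about 5-100× the 48 h LD50; groups of 5. Compounds given s.c. in 2% Tween 80 at 1 and 3 h post-infection (P. aeruginosa also at 5 h). ED50 (mg/kg s.c.) by Probit from 4-day survival.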

Test [3] has as its system Pseudomonas aeruginosa BA. In words: Experimental systemic septicaemia in the mouse. The format is in vivo. The conditions noted are these: sc, 96 h. The method, boiled down:
as §3

For the next test, the system named is S. aureus Schoch. In words: Experimental systemic septicaemia in the mouse. The test is classed as in vivo. The conditions noted are these: Staphylococcus aureus, sc, 96 h. In short, it runs like this:
as §3

For the compound `Cc1cc(SCC2=C(C(=O)[O-])N3C(=O)[C@@H](NC(=O)/C(=N\OCc4ccc(O)c(O)c4F)c4csc(N)n4)[C@H]3SC2)n2nc(CS(=O)(=O)c3ccc(O)c(O)c3)nc2n1.[Na+]` [Example 12, (6R,7R)-7-[(Z)-2-(2-amino-4-thiazolyl)-2-[[(2-fluoro-3,4-dihydroxybenzyl)oxy]imino]acetamido]-3-[[[2-[[(3,4-dihydroxyphenyl)sulphonyl]methyl]-5-methyl-s-triazolo[1,5-a]pyrimidin-7-yl]thio]methyl]-8-oxo-5-thia-1-azabicyclo[4.2.0]oct-2-ene-2-carboxylic acid sodium salt (1:1)], the MIC against C. freundii 902 was under 0.1 µg/mL; against E. aerogenes CF153 it was 4 µg/mL; against E. cloacae 908R, 2 µg/mL; against E. cloacae 908SSi, 4 µg/mL; against E. cloacae P99, 8 µg/mL; in the test with E. coli 25922 [1], under 0.1 µg/mL. Further, the MIC in the test on K. oxytoca 1082 is 0.5 µg/mL; in the test on K. pneumoniae 418, under 0.1 µg/mL; against P. aeruginosa 27853 it was under 0.1 µg/mL; in the test with P. aeruginosa 799/61, under 0.1 µg/mL; in the test on P. aeruginosa 799/WT, under 0.1 µg/mL; against P. aeruginosa BA, under 0.1 µg/mL. In addition, the MIC in the test on P. aeruginosa MK1184 is under 0.1 µg/mL; in the test on P. mirabilis 2117 it was 0.12 µg/mL; in the test on P. vulgaris 1028, 0.25 µg/mL; in the test with S. aureus 6538 it was 16 µg/mL; against S. marcescens 69438, under 0.1 µg/mL; against S. pyogenes 15, 2 µg/mL. For the same compound, the ED50 was under 0.05 mg/kg in the test on E. coli 25922 [2], 0.028 mg/kg in test [3] and 6.2 mg/kg with S. aureus Schoch.
